Biological target: T1, BACE-1 enzyme (Homo sapiens, UniProt P56817)
T1 construct: purchased R & D Systems 931AS
Test: BACE Fluorescence Resonance Energy Transfer (FRET) Assay
Type: biochemical
Settings: pH 4-4.5, 30 min pre-incubation, about 1.5 hours reaction
Method in brief: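 Fluorescence (ex 540, em 585 nm) after ~1.5 h room-temperature cleavage of a quenched rhodamine peptide tracks BACE-1 activity. Enzyme and compound first sit 30 min in pH 4-4.5 acetate buffer with CHAPS, Triton X-100, EDTA, 7.5% DMSO. Values given as IC50 or % inhibition.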

T1 sequence (P56817 46-457 limits assumed): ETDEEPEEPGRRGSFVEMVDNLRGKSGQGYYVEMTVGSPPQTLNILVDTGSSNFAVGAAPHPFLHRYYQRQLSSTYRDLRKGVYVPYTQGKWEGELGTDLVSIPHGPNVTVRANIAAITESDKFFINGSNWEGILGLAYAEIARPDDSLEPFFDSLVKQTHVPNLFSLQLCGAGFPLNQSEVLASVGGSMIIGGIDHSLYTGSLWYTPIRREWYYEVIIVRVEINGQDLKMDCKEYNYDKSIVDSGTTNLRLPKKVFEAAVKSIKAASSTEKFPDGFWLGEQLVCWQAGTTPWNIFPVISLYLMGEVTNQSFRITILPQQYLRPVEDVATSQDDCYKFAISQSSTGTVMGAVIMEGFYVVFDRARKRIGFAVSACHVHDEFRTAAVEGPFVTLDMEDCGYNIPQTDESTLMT

Structure (SMILES) | IC50 [µM]
CN(C)Cc1ccc2nc(C(=O)Nc3nc4cc(-c5cccc(C(F)(F)F)c5)ccc4[nH]3)cn2c1 [Example 181, 6-Dimethylaminomethyl-imidazo[1,2-a]pyridine-2-carboxylic acid [5-(3-trifluoromethyl-phenyl)-1H-benzoimidazol-2-yl]-amide] | 0.8
CN1CCN(Cc2ccc3nc(C(=O)Nc4nc5cc(-c6cccc(C(F)(F)F)c6)ccc5[nH]4)cn3c2)CC1 [Example 183, 6-(4-Methyl-piperazin-1-ylmethyl)-imidazo[1,2-a]pyridine-2-carboxylic acid [5-(3-trifluoromethyl-phenyl)-1H-benzoimidazol-2-yl]-amide] | 0.56
O=C(Nc1nc2cc(-c3cccc(C(F)(F)F)c3)ccc2[nH]1)c1cn2cc(CNCc3ccccc3)ccc2n1 [Example 186, 6-(Benzylamino-methyl)-imidazo[1,2-a]pyridine-2-carboxylic acid [5-(3-trifluoromethyl-phenyl)-1H-benzoimidazol-2-yl]-amide] | 0.43
CCNCc1ccc2nc(C(=O)Nc3nc4cc(-c5cccc(C(F)(F)F)c5)ccc4[nH]3)cn2c1 [Example 187, 6-Ethylaminomethyl-imidazo[1,2-a]pyridine-2-carboxylic acid [5-(3-trifluoromethyl-phenyl)-1H-benzoimidazol-2-yl]-amide] | 0.51
CCN(C)Cc1cccc2nc(C(=O)Nc3nc4cc(-c5cccc(C(F)(F)F)c5)ccc4[nH]3)cn12 [Example 189, 5-[(Ethyl-methyl-amino)-methyl]-imidazo[1,2-a]pyridine-2-carboxylic acid [5-(3-trifluoromethyl-phenyl)-1H-benzoimidazol-2-yl]-amide] | 0.95
CN(Cc1ccccc1)Cc1cccc2nc(C(=O)Nc3nc4cc(-c5cccc(C(F)(F)F)c5)ccc4[nH]3)cn12 [Example 190, 5-[(Benzyl-methyl-amino)-methyl]-imidazo[1,2-a]pyridine-2-carboxylic acid [5-(3-trifluoromethyl-phenyl)-1H-benzoimidazol-2-yl]-amide] | 1.28
CC(C)CN(C)Cc1cccc2nc(C(=O)Nc3nc4cc(-c5cccc(C(F)(F)F)c5)ccc4[nH]3)cn12 [Example 191, 5-[(Isobutyl-methyl-amino)-methyl]-imidazo[1,2-a]pyridine-2-carboxylic acid [5-(3-trifluoromethyl-phenyl)-1H-benzoimidazol-2-yl]-amide] | 1.53
CC(C)(C)NCc1cccn2cc(C(=O)Nc3nc4cc(-c5cccc(C(F)(F)F)c5)ccc4[nH]3)nc12 [Example 193, 8-(tert-Butylamino-methyl)-imidazo[1,2-a]pyridine-2-carboxylic acid [5-(3-trifluoromethyl-phenyl)-1H-benzoimidazol-2-yl]-amide] | 1.65
CCN(C)Cc1cccn2cc(C(=O)Nc3nc4cc(-c5cccc(C(F)(F)F)c5)ccc4[nH]3)nc12 [Example 195, 8-[(Ethyl-methyl-amino)-methyl]-imidazo[1,2-a]pyridine-2-carboxylic acid [5-(3-trifluoromethyl-phenyl)-1H-benzoimidazol-2-yl]-amide] | 1.08
O=C(Nc1nc2cc(-c3cccc(C(F)(F)F)c3)ccc2[nH]1)c1cn2cccc(CN3CCOCC3)c2n1 [Example 198, 8-Morpholin-4-ylmethyl-imidazo[1,2-a]pyridine-2-carboxylic acid [5-(3-trifluoromethyl-phenyl)-1H-benzoimidazol-2-yl]-amide] | 1.14
O=C(Nc1nc2cc(-c3cccc(C(F)(F)F)c3)ccc2[nH]1)c1cn2ccc(CO)cc2n1 [Example 200, 7-Hydroxymethyl-imidazo[1,2-a]pyridine-2-carboxylic acid [5-(3-trifluoromethyl-phenyl)-1H-benzoimidazol-2-yl]-amide] | 0.46
O=C(Nc1nc2cc(-c3cccc(C(F)(F)F)c3)ccc2[nH]1)c1cn2ccc(CN3CCNCC3)cc2n1 [Example 203, 7-Piperazin-1-ylmethyl-imidazo[1,2-a]pyridine-2-carboxylic acid [5-(3-trifluoromethyl-phenyl)-1H-benzoimidazol-2-yl]-amide] | 0.66
COCCNCc1ccn2cc(C(=O)Nc3nc4cc(-c5cccc(C(F)(F)F)c5)ccc4[nH]3)nc2c1 [Example 208, 7-[(2-Methoxy-ethylamino)-methyl]-imidazo[1,2-a]pyridine-2-carboxylic acid [5-(3-trifluoromethyl-phenyl)-1H-benzoimidazol-2-yl]-amide] | 0.23
O=C(Nc1nc2cc(-c3cccc(C(F)(F)F)c3)ccc2[nH]1)c1cn2ccc(CNCCN3CCOCC3)cc2n1 [Example 210, 7-[(2-Morpholin-4-yl-ethylamino)-methyl]-imidazo[1,2-a]pyridine-2-carboxylic acid [5-(3-trifluoromethyl-phenyl)-1H-benzoimidazol-2-yl]-amide] | 0.18
CCN(CCO)Cc1ccn2cc(C(=O)Nc3nc4cc(-c5cccc(C(F)(F)F)c5)ccc4[nH]3)nc2c1 [Example 211, 7-{[Ethyl-(2-hydroxy-ethyl)-amino]-methyl}-imidazo[1,2-a]pyridine-2-carboxylic acid [5-(3-trifluoromethyl-phenyl)-1H-benzoimidazol-2-yl]-amide] | 0.24
CN(C)CCNCc1ccn2cc(C(=O)Nc3nc4cc(-c5cccc(C(F)(F)F)c5)ccc4[nH]3)nc2c1 [Example 212, 7-[(2-Dimethylamino-ethylamino)-methyl]-imidazo[1,2-a]pyridine-2-carboxylic acid [5-(3-trifluoromethyl-phenyl)-1H-benzoimidazol-2-yl]-amide] | 0.26
Cn1cc(-c2cccc3nc(C(=O)Nc4nc5cc(-c6cccc(C(F)(F)F)c6)ccc5[nH]4)cn23)cn1 [Example 213, 5-(1-methyl-1H-pyrazol-4-yl)-N-{5-[3-(trifluoromethyl)phenyl]-1H-benzimidazol-2-yl}imidazo[1,2-a]pyridine-2-carboxamide] | 0.26
O=C(Nc1nc2cc(-c3cccc(C(F)(F)F)c3)ccc2[nH]1)c1cn2cccc(-c3ccccc3)c2n1 [Example 216, 8-phenyl-N-{5-[3-(trifluoromethyl)phenyl]-1H-benzimidazol-2-yl}imidazo[1,2-a]pyridine-2-carboxamide] | 0.65
O=C(Nc1nc2cc(-c3cccc(C(F)(F)F)c3)ccc2[nH]1)c1cn2c(-c3ccncc3)cccc2n1 [Example 217, 5-(pyridin-4-yl)-N-{5-[3-(trifluoromethyl)phenyl]-1H-benzimidazol-2-yl}imidazo[1,2-a]pyridine-2-carboxamide] | 0.15
O=C(Nc1nc2cc(-c3cccc(C(F)(F)F)c3)ccc2[nH]1)c1cn2c(C3CCNCC3)cccc2n1 [Example 218, 5-(piperidin-4-yl)-N-{5-[3-(trifluoromethyl)phenyl]-1H-benzimidazol-2-yl}imidazo[1,2-a]pyridine-2-carboxamide] | 0.45
CCCc1cccc2nc(C(=O)Nc3nc4cc(-c5cccc(C(F)(F)F)c5)ccc4[nH]3)cn12 [Example 220, 5-propyl-N-{5-[3-(trifluoromethyl)phenyl]-1H-benzimidazol-2-yl}imidazo[1,2-a]pyridine-2-carboxamide] | 0.38
CCCc1cccc2nc(C(=O)Nc3nc4cc(-c5cccc(OC(F)(F)F)c5)ccc4[nH]3)cn12 [Example 221, 5-propyl-N-{5-[3-(trifluoromethoxy)phenyl]-1H-benzimidazol-2-yl}imidazo[1,2-a]pyridine-2-carboxamide] | 0.28
CC(C)c1cccc2nc(C(=O)Nc3nc4cc(-c5cccc(C(F)(F)F)c5)ccc4[nH]3)cn12 [Example 222, 5-(propan-2-yl)-N-{5-[3-(trifluoromethyl)phenyl]-1H-benzimidazol-2-yl}imidazo[1,2-a]pyridine-2-carboxamide] | 1.23
CC(C)c1cccc2nc(C(=O)Nc3nc4cc(-c5cccc(OC(F)(F)F)c5)ccc4[nH]3)cn12 [Example 223, 5-(propan-2-yl)-N-{5-[3-(trifluoromethoxy)phenyl]-1H-benzimidazol-2-yl}imidazo[1,2-a]pyridine-2-carboxamide] | 0.83
CCc1cccc2nc(C(=O)Nc3nc4cc(-c5cccc(OC(F)(F)F)c5)ccc4[nH]3)cn12 [Example 224, 5-ethyl-N-{5-[3-(trifluoromethoxy)phenyl]-1H-benzimidazol-2-yl}imidazo[1,2-a]pyridine-2-carboxamide] | 0.55
O=C(Nc1nc2cc(-c3cc(F)cc(Cl)c3)ccc2[nH]1)c1cn2c(C(=O)NC3CCNCC3)cccc2n1 [Example 225, Imidazo[1,2-a]pyridine-2,5-dicarboxylic acid 2-{[5-(3-chloro-5-fluoro-phenyl)-1H-benzoimidazol-2-yl]-amide} 5-piperidin-4-ylamide] | 0.48
CNC(=O)c1cccn2cc(C(=O)Nc3nc4cc(-c5cccc(C(F)(F)F)c5)ccc4[nH]3)nc12 [Example 229, Imidazo[1,2-a]pyridine-2,8-dicarboxylic acid 8-methylamide 2-{[5-(3-trifluoromethyl-phenyl)-1H-benzoimidazol-2-yl]-amide}] | 0.16
CN(C)C(=O)c1cccn2cc(C(=O)Nc3nc4cc(-c5cccc(C(F)(F)F)c5)ccc4[nH]3)nc12 [Example 230, Imidazo[1,2-a]pyridine-2,8-dicarboxylic acid 8-dimethylamide 2-{[5-(3-trifluoromethyl-phenyl)-1H-benzoimidazol-2-yl]-amide}] | 0.28
COCCNC(=O)c1cccn2cc(C(=O)Nc3nc4cc(-c5cccc(C(F)(F)F)c5)ccc4[nH]3)nc12 [Example 231, Imidazo[1,2-a]pyridine-2,8-dicarboxylic acid 8-[(2-methoxy-ethyl)-amide] 2-{[5-(3-trifluoromethyl-phenyl)-1H-benzoimidazol-2-yl]-amide}] | 0.31
O=C(Nc1nc2cc(-c3cccc(Cl)c3)ccc2[nH]1)c1cn2cc(N3CC[C@H](O)C3)ccc2n1 [Example 232, 6-((S)-3-Hydroxy-pyrrolidin-1-yl)-imidazo[1,2-a]pyridine-2-carboxylic acid [5-(3-chloro-phenyl)-1H-benzoimidazol-2-yl]-amide] | 0.14
